Data reported in patent publication US8158088B2, “Extractant compositions for co-extracting cesium and strontium, a method of separating cesium and strontium from an aqueous feed, and calixarene compounds” (Battelle Energy Alliance, LLC, priority 2008, dated 2012).

Assays:
Type in all cases: physicochemical
[1] = Third phase formation on contact with nitric acid
[2] = Solvent stability: strontium distribution ratios as a function of contact time with 1.5 M HNO3
Method: (§1) The stability of the mixed extractant solvents prepared using dialkyloxycalix[4]arenebenzocrown-6 compounds (MC-8, MC-8B, MC-10, MC-10B, MC-12, or MC-12B) relative to BOBCalixC6 in the FPEX I process solvent was determined. Samples were prepared using each of the dialkyloxycalix[4]arenebenzocrown-6 compounds and contacted with 1.5 M HNO3. The samples included 0.007 M of the respective dialkyloxycalix[4]arenebenzo-crown-6 compound (MC-8, MC-8B, MC-10, MC-10B, MC-12, or MC-12B), 0.075 M DtBuCH18C6, 0.75 M Cs-7SB modifier, and 0.003 M TOA in ISOPAR® L. The stability of the dialkyloxycalix[4]arene-benzocrown-6 based solvents was evaluated by measuring the cesium and strontium distribution ratios as a function of contact time. These cesium and strontium distribution ratios for the mixed extractant solvents are presented in Table 9 and Table 10, respectively, along with the cesium and strontium distribution ratios for the FPEX I process solvent. The symbol “-” is used in Tables 9 and 10 to indicate no data was collected.
(§2) This degradation is likely due to chemical attack or nitration of the BOBCalixC6 in the FPEX I process solvent. […] However, it is difficult to compare the relative extents of degradation. In order to compare the different extractants, the distribution ratio data presented in Tables 9 and 10 were normalized to the values obtained at t=0 days contact. The normalized cesium and strontium distribution ratios for the FPEX I process solvent and the mixed extractant solvents as a function of contact time are presented in FIGS. 2 and 3, respectively.

[3] = Cesium distribution ratio (DCs), equilibrium batch contact of mixed extractant solvent with nitric acid feed; details: for Cesium distribution ratio, contact E1: first forward extraction, 1.5 M HNO3 feed simulant, 0.075 M DtBuCH18C6, 0.75 M Cs-7SB, 0.003 M TOA in ISOPAR L; for Cesium distribution ratio, contact E1 / Cesium distribution ratio, contact E2 / Cesium distribution ratio, contact E3: 25 °C; for Cesium distribution ratio, contact St1: first strip with 0.01 M HNO3, 35 °C; for Cesium distribution ratio, contact St1 / Cesium distribution ratio, contact E2 / Cesium distribution ratio, contact St2 / Cesium distribution ratio, contact E3: 0.007 M calixarene solvent; for Cesium distribution ratio, contact E2: second forward extraction; for Cesium distribution ratio, contact St2: second strip with 0.01 M HNO3, 35 °C; for Cesium distribution ratio, contact E3: third forward extraction
Text: The distribution of cesium and strontium between the first organic phase (the mixed extractant solvent including the dialkyloxycalix[4]arenebenzocrown-6 compound) and the first aqueous phase (aqueous feed) may be determined by conventional techniques. The distribution ratio for strontium (“DSr”) may be calculated as the ratio of organic phase activity to the aqueous phase activity at equilibrium. High values for the DSr indicate that the strontium is present predominantly in the organic phase while low values for the DSr indicate that the strontium is present predominantly in the aqueous phase. Similarly, the distribution ratio for cesium (“DCs”) may be calculated as the ratio of organic phase activity to the aqueous phase activity at equilibrium. High values for the DCs indicate that the cesium is present predominantly in the organic phase while low values for the DCs indicate that the cesium is present predominantly in the aqueous phase.
Distribution ratios (DM=[M]org/[M]aq) were measured by equilibrium batch contacts between the organic and aqueous phases at an organic-to-aqueous phase ratio (O/A) of unity (O/A=1). All distribution ratio measurements were conducted in a temperature controlled water bath at 25±1° C. The aqueous phase was of the appropriate HNO3 concentration, to which trace quantities (typically, less than 10^−7 M each) of the major radionuclides of interest (^137Cs, ^85Sr, ^154Eu, or ^241Am) were added. The organic and aqueous phases were contacted by vortex mixing for 1 minute. All batch contact experiments were performed at ambient temperature (from approximately 20° C. to approximately 25° C.) unless otherwise noted. Following extraction, the samples were centrifuged for 1 minute and the organic and aqueous phases separated by pipet or centrifugation. The distribution ratios (DSr, or DCs) were calculated as the ratio of the appropriate specific activities in the organic and aqueous phases as determined by γ-ray counting (gamma spectroscopy). The counting time was selected to provide less than approximately 1% statistical uncertainty.
(MC-8, MC-8B, MC-10, MC-10B, MC-12, or MC-12B), 0.075 M DtBuCH18C6, 0.75 M Cs-7SB modifier, and 0.003 M TOA in ISOPAR® L were evaluated for their respective abilities to simultaneously extract cesium and strontium from the aqueous feed simulant composition described in Table 2. The cesium and strontium distribution ratios of the mixed extraction solvents were compared to those of the FPEX I process solvent. The cesium extraction performance and strontium extraction performance of each of the mixed extractant solvents was determined using the batch contact flowsheet presented in FIG. 1, where “E1,” “E2,” and “E3” refer to three forward extraction acts: a first extraction act, a second extraction act, and a third extraction act, respectively, and “St1” and “St2” refer to two backward extraction acts: a first strip act and a second strip act, respectively. […] The aqueous feed 2 and the mixed extractant solvent 4 were combined in a vessel 6 to conduct the extraction. Two phases were formed during the extraction: the first organic phase and the first aqueous phase, with the cesium and strontium substantially distributed in the first organic phase.
The cesium and strontium distribution ratios for the mixed extractant solvents 4 were calculated for the first organic phase and are reported in Tables 3 and 4, respectively, as E1, along with the cesium and strontium distribution ratios for the FPEX I process solvent. The cesium and strontium were stripped from the first (and subsequent) organic phase to recover these radionuclides. For the strips or backward extractions, the first (and subsequent) organic phase was contacted with dilute acidic solution 8, which was 0.01 M HNO3. […]

[4] = Solvent stability: cesium distribution ratios as a function of contact time with 1.5 M HNO3
Method: as §1, §2

[5] = Strontium distribution ratio (DSr), equilibrium batch contact of mixed extractant solvent with nitric acid feed; details: for Strontium distribution ratio, contact E1: first forward extraction, 1.5 M HNO3 feed simulant, 0.007 M calixarene, 0.075 M DtBuCH18C6, 0.75 M Cs-7SB, 0.003 M TOA in ISOPAR L; for Strontium distribution ratio, contact E1 / Strontium distribution ratio, contact E2 / Strontium distribution ratio, contact E3: 25 °C; for Strontium distribution ratio, contact St1: first strip with 0.01 M HNO3, 35 °C; for Strontium distribution ratio, contact St1 / Strontium distribution ratio, contact E2 / Strontium distribution ratio, contact St2 / Strontium distribution ratio, contact E3: 0.007 M calixarene solvent; for Strontium distribution ratio, contact E2: second forward extraction; for Strontium distribution ratio, contact E2 / Strontium distribution ratio, contact E3: 1.5 M HNO3 feed; for Strontium distribution ratio, contact St2: second strip with 0.01 M HNO3, 35 °C; for Strontium distribution ratio, contact E3: third forward extraction
[6] = contact time 0 days with 1.5 M HNO3, 0.007 M calixarene, 0.075 M DtBuCH18C6, 0.75 M Cs-7SB, 0.003 M TOA in ISOPAR L
[7] = contact time 36 days with 1.5 M HNO3
[8] = contact time 244 days with 1.5 M HNO3
[9] = contact time 34 days with 1.5 M HNO3
[10] = contact time 70 days with 1.5 M HNO3
[11] = contact time 278 days with 1.5 M HNO3

Row | Strontium distribution ratio as a function of contact time [2, 6] | Cesium distribution ratio as a function of contact time [4, 6] | Cesium distribution ratio as a function of contact time [4, 11] | Molecule | Cesium distribution ratio, contact E1 ([3]; 0.007 M calixarene) | Cesium distribution ratio, contact St1 [3] | Cesium distribution ratio, contact E2 ([3]; 1.5 M HNO3 feed) | Cesium distribution ratio, contact St2 [3] | Cesium distribution ratio, contact E3 ([3]; 1.5 M HNO3 feed) | Strontium distribution ratio, contact E1 [5] | Strontium distribution ratio, contact St1 [5] | Strontium distribution ratio, contact E2 [5] | Strontium distribution ratio, contact St2 [5] | Strontium distribution ratio, contact E3 [5] | further results
1 | – | – | – | CCC(C)c1ccc(OCC(O)COCC(F)(F)C(F)F)cc1 (centres unmarked) [Cs-7SB, 1-(2,2,3,3-tetrafluoropropoxy)-3-(4-sec-butylphenoxy)-2-propanol, reference compound] | – | – | – | – | – | – | – | – | – | – | nitric acid concentration above which a third phase forms ([1]; mixed extractant solvent with Cs-7SB as modifier added to aqueous feed): > 1.5 M
2 | – | – | – | 4′,4′,(5′)-di-(t-butyldicyclohexano)-18-crown-6 [DtBuCH18C6, reference compound] | – | – | – | – | – | – | – | – | – | – | stability (normalized strontium distribution ratios, FIG. 3) ([2]; prolonged contact with HNO3): subject to degradation following prolonged contact with HNO3
3 | 6.3 | 3.3 | – | CCCCC(CCCC)CCCOc1c2cccc1Cc1cccc3c1OCCOCCOc1ccccc1OCCOCCOc1c(cccc1Cc1cccc(c1OCCCC(CCCC)CCCC)C3)C2 [MC-12B, 1,3-alternate-25,27-di(4-butyloctyl-1-oxy)calix[4]arenebenzocrown-6] | 2.5 | 0.4 | 1.3 | 0.2 | 1.1 | 7.7 | 0.03 | 6.7 | 0.02 | 6.3 | Strontium distribution ratio as a function of contact time [2, 7]: 6.9; Strontium distribution ratio as a function of contact time [2, 8]: 5.7; Cesium distribution ratio as a function of contact time [4, 7]: 2.1; Cesium distribution ratio as a function of contact time [4, 8]: 1.8
4 | 9.5 | 3.7 | 1.1 | CCCCCCCCCCOc1c2cccc1Cc1cccc3c1OCCOCCOc1ccccc1OCCOCCOc1c(cccc1Cc1cccc(c1OCCCCCCCCCC)C3)C2 [MC-10, 1,3-alternate-25,27-di(decyloxy)calix[4]arenebenzocrown-6] | 3.7 | 0.5 | 2.0 | 0.2 | 1.6 | 9.5 | 0.06 | 8.4 | 0.01 | 8.3 | Strontium distribution ratio as a function of contact time [2, 9]: 7.7; Strontium distribution ratio as a function of contact time [2, 10]: 9.0; Strontium distribution ratio as a function of contact time [2, 11]: 7.7; Cesium distribution ratio as a function of contact time [4, 9]: 3.0; Cesium distribution ratio as a function of contact time [4, 10]: 3.5
5 | 8.9 | 1.36 | 2.8 | CCCCC(CC)COc1c2cccc1Cc1cccc3c1OCCOCCOc1ccccc1OCCOCCOc1c(cccc1Cc1cccc(c1OC[C@H](CC)CCCC)C3)C2 (some centres unmarked) [MC-8B, 1,3-alternate-25,27-di(2-ethylhexyl-1-oxy)calix[4]arenebenzocrown-6] | 1.4 | 0.2 | 1.1 | 0.1 | 1.0 | 8.9 | 0.06 | 8.3 | 0.01 | 8.1 | cesium distribution ratios, comparison in words ([3]; 0.007 M calixarene, 1.5 M HNO3 feed): lowest distribution ratios; Strontium distribution ratio as a function of contact time [2, 9]: 7.2; Strontium distribution ratio as a function of contact time [2, 10]: 9.3; Strontium distribution ratio as a function of contact time [2, 11]: 7.6; Cesium distribution ratio as a function of contact time [4, 9]: 0.8; Cesium distribution ratio as a function of contact time [4, 10]: 1.5; stability toward hydrolytic degradation (normalized cesium distribution ratios, FIG. 2) ([4]; prolonged contact with 1.5 M HNO3): most resistant toward hydrolytic degradation
6 | – | – | – | CC(C)(C)CC(C)(C)c1ccc2c(c1)OCCOCCOc1c3cccc1Cc1cccc4c1OCCOCCOc1cc(C(C)(C)CC(C)(C)C)ccc1OCCOCCOc1c(cccc1C3)Cc1cccc(c1OCCOCCO2)C4 [BOBCalixC6, calix[4]arene-bis(tert-octylbenzo)-crown-6, reference compound] | – | – | – | – | – | – | – | – | – | – | third phase formation ([1]; 5 M HNO3, 0.025 M BOBCalixC6, 0.075 DtBuCH18C6, 0.003 M TOA, 0.75 M EXXAL 12 in ISOPAR L): Third phase formation was observed
7 | 7.5 | 3.0 | 2.8 | CCCCCCCCCCCCOc1c2cccc1Cc1cccc3c1OCCOCCOc1ccccc1OCCOCCOc1c(cccc1Cc1cccc(c1OCCCCCCCCCCCC)C3)C2 [MC-12, 1,3-alternate-25,27-di(dodecyloxy)calix[4]arenebenzocrown-6] | 2.9 | 0.4 | 1.7 | 0.2 | 1.3 | 7.7 | 0.04 | 7.5 | 0.01 | 7.0 | Strontium distribution ratio as a function of contact time [2, 7]: 7.1; Strontium distribution ratio as a function of contact time [2, 8]: 6.1; Cesium distribution ratio as a function of contact time [4, 7]: 2.5; Cesium distribution ratio as a function of contact time [4, 8]: 2.2
